“Also recorded” adds a separate entry of the source.
What was measured:
HepG2 cells [1] = assay: cell viability (CCK-8); assay type: cell-based, human; settings: 24 h
Protocol: (§1) HTLA cells (a HEK293 cell line stably expressing a tTA-dependent luciferase reporter and a β-arrestin2-TEV fusion gene) were a gift from the laboratory of R. Axel (he has given us permission to distribute them) and are maintained in DMEM supplemented with 10% FBS, 100 U/mL penicillin and 100 μg/mL streptomycin, 2 μg/mL puromycin and 100 μg/mL hygromycin B. HepG2 cells (C5 passage, human hepatoma cell line) were purchased from the National Platform of Experimental Cell Resources for Sci-Tech, Chinese Academy of Medical Sciences (Beijing, China), and 293A8 cells were the cell line HEK293A stably transfected with the UT receptor in our laboratory. HepG2 and 293A8 cells were grown in high glucose (25 mmol/L) Dulbecco’s modified Eagle’s medium (DMEM, Gibco, CA, USA) supplemented with 10% fetal bovine serum (FBS, Gibco, CA, USA), 100 U/mL penicillin and 100 µg/mL streptomycin solution (Solarbio, Beijing, China). Cells were cultured in a standard humidified incubator at 37 °C under a 5% CO2 atmosphere. The media were changed every 2 days. Subcultures were performed at a ratio of 1:3 when cells were approximately 75–85% confluent.
Cell viability was detected by Cell Counting Kit-8 (CCK-8) per the instructions of the technical manual (Dojindo, Kumamoto, Japan). In brief, the cells were seeded in a 96-well plate and incubated overnight in the cell culture incubator. After the cells were treated with compounds for a certain period, the CCK-8 test solution was added at 1/10 of the total volume. Then, the plates were incubated in the incubator for 2 h, and the absorbance at 450 nm was measured using a SpectraMax M5 microplate reader (Molecular Devices, LLC, San Jose, CA, USA).

HepG2 cells [2] = assay: glucose consumption; assay type: cell-based, human
Protocol: as §1
(§2) Glucose consumption detection was performed as described previously. In brief, HepG2 cells in 96-well plates at a density of 8000 cells/well were treated with compounds at 37 °C, and 5% CO2. After the indicated duration, the media from cultured cells were taken for glucose and lactic acid detection. The glucose levels were detected by a blood-glucose kit from Biosino Biotechnology (Beijing, China). The amount of glucose consumption was calculated by subtracting the initial glucose level from the remaining glucose in the wells. The lactate content was measured using the lactic acid assay kit (Nanjing Jiancheng Bioengineering Institute, Nanjing, China) according to the manufacturer’s instructions.

UT receptor [3] = target: T1, UT receptor (Homo sapiens, UniProt Q9UKP6); assay: luciferase β-arrestin recruitment-based assay; assay type: cell-based
T1 construct: SNAP-tag; expressed in transfected cells; host or cells: 293A8 (HEK293A stably transfected with the UT receptor); inferred, the calcium-assay paragraph names no cells
T1 sequence (Q9UKP6 1-389): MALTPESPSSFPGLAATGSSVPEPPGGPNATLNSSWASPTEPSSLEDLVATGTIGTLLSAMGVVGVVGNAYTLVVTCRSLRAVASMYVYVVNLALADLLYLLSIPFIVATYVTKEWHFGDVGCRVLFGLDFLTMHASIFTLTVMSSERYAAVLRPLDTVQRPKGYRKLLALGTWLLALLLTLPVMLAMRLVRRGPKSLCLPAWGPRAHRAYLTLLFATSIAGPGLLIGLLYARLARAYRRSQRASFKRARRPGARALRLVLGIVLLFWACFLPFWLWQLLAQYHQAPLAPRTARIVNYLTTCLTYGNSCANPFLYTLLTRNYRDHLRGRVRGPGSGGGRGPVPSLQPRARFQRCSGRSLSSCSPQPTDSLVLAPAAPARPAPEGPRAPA
Protocol: as §1
The β-arrestin recruitment-based experiments were performed according to previous reports with slight modifications. In brief, the UT receptor plasmid was transfected into HTLA cells with the transfection reagent PEI when the cell confluence reached approximately 80%. Transfected cells were seeded in 96-well plates at a density of 1.5 × 10^5 cells/well. After 24 h, the cells were treated with compounds diluted to the specified concentration using 10% FBS DMEM. Following the next 24 h incubation with compounds, the medium was removed and Bright-GloTM (Promega, Madison, WI, USA) reagent was added immediately. Then, the activity of firefly luciferase luminescence (RLUF) was measured using a SpectraMax M5 microplate reader (Molecular devices, LLC., San Jose, CA, USA).

UT receptor [4] = target: T1, UT receptor; assay: intracellular calcium mobilization (Fluo-8 calcium assay); assay type: cell-based; settings: for agonist behaviour in calcium assay: in words
Protocol: as §1
Measurement of intracellular calcium mobilization was performed using Fluo-8 Calcium Assay Kit (Applygen, Beijing, China) following the manufacturer’s instructions.

HepG2 cells [5] = assay: lactic acid release; assay type: cell-based, human
Protocol: as §1, §2

[6] = chronic administration, cited from earlier work
[7] = design: method as in PMID 19696412; settings: cited from earlier work
[8] = HTLA cells transfected with UT receptor plasmid
[9] = HTLA cells transfected with UT receptor plasmid, 24 h incubation, read-out: β-arrestin recruitment-based assay EC50
[10] = intracellular calcium mobilization
[11] = intracellular calcium mobilization, fluorescence-based, read-out: Calcium assay EC50

For `C=CC(C)(C)c1c(O)cc(O)c2c(=O)c(O)c(-c3cc(O)c4c(c3)C=CC(C)(C)O4)oc12` [Compound 1], the cell viability (HepG2 cells [1]) was “did not affect; also recorded: without obvious cytotoxic effects”, the glucose consumption (HepG2 cells [2]; 48 h total glucose consumption) was “significantly accelerate 48 h total glucose consumption; also recorded: promote glucose utilization” and the “β-arrestin recruitment-based assay Emax” value (UT receptor [3]; [8]) was 4.85. For the same compound, the EC50 (UT receptor [3]; [9]) was 0.0897 µM, the “agonist behaviour in calcium assay” value (UT receptor [4]) was “full potent agonist” and the “Calcium assay Emax” value (UT receptor [4]; [10]) was 5.62. The EC50 (UT receptor [4]; [11]) was 7.39 µM and the lactic acid release (HepG2 cells [5]) was “reduced lactic acid production”.

In the case of `CC(C)[C@H](NC(=O)[C@@H]1CSSC[C@H](NC(=O)[C@H](CC(=O)O)NC(=O)[C@@H]2CCCN2C(=O)[C@@H](NC(=O)[C@@H](N)CCC(=O)O)[C@@H](C)O)C(=O)N[C@@H](Cc2ccccc2)C(=O)N[C@@H](Cc2c[nH]c3ccccc23)C(=O)N[C@@H](CCCCN)C(=O)N[C@@H](Cc2ccc(O)cc2)C(=O)N1)C(=O)O` [U-II, urotensin-II], the “β-arrestin recruitment-based assay Emax” value (UT receptor [3]; [8]) is listed as 8.32, the whole-body glucose tolerance ([6]; high-fat-diet-fed mice) is listed as “improves whole-body glucose tolerance” and the glucose tolerance ([6]; obese mice) is listed as “improved glucose tolerance”. The “glucose consumption in vitro” value [7] was “increases glucose consumption” and the “Calcium assay Emax” value (UT receptor [4]; [10]) was 5.27.

With `O=C(NCCc1cccs1)C1(c2ccccc2)CCCC1` [Compound 3] the cell viability (HepG2 cells [1]) was “significantly reduced cell viability”, the glucose consumption (HepG2 cells [2]; at higher concentrations (10^−6 M, 10^−5 M)) was “significantly increased glucose consumption” and the “β-arrestin recruitment-based assay Emax” value (UT receptor [3]; [8]) was 3.26. The EC50 (UT receptor [3]; [9]) was 0.0448 µM, the “agonist behaviour in calcium assay” value (UT receptor [4]) was “weak activity” and the “Calcium assay Emax” value (UT receptor [4]; [10]) was 2.37. The EC50 (UT receptor [4]; [11]) was 10.6 µM and the lactic acid release (HepG2 cells [5]) was “reduced lactic acid production”.

In the case of `Cc1cc(NC(=O)NCCN2CCC(O)(Cc3ccccc3)CC2)c2ccccc2n1` [palosuran], the “effect of palosuran preincubation on compound-induced intracellular calcium mobilization” value (UT receptor [4]; palosuran 10^−7 M, with Compounds 1, 2, 3) is reported as “specifically reduced the increase in intracellular calcium mobilization”.

With `O=C(c1ccc([N+](=O)[O-])o1)N1CCN(c2ccc([N+](=O)[O-])cc2)CC1` [Compound 2] the cell viability (HepG2 cells [1]) was “no significant differences”, the glucose consumption (HepG2 cells [2]; 48 h total glucose consumption) was “no significant differences” and the EC50 (UT receptor [3]) was 0.037 µM. For the same compound, the “β-arrestin recruitment-based assay Emax” value (UT receptor [3]; [8]) was 2.40, the EC50 (UT receptor [4]) was 10.2 µM and the “Calcium assay Emax” value (UT receptor [4]; [10]) was 4.08. The lactic acid release (HepG2 cells [5]) was “no significant differences”.
